Data set [1] is classed as in vivo. The following applies: rats; fexofenadine 10 mg/kg oral; control group without KRG.
Another data set deals with P-gp. Conditions: cited from earlier work.
A further data set concerns CYP1A1. The following applies: HepG2 cells; cited from earlier work.
Another data set deals with CYP3A4. The following applies: cited from earlier work.
In the next data set the test system is CYP2C9. The following applies: cited from earlier work.
The next data set relates to CYP2C19. The following applies: cited from earlier work.
The test system of another data set is CYP2D6. Conditions: cited from earlier work.
The next data set deals with drug-resistant KBV cells. The following applies: cited from earlier work.

Structures can show the parent of a compound that is named as a salt.

As for `CC(C)(C(=O)O)c1ccc(C(O)CCCN2CCC(C(O)(c3ccccc3)c3ccccc3)CC2)cc1` (stereo not drawn) [fexofenadine, Fexofenadine hydrochloride], the “mean maximum concentration of fexofenadine” value in data set [1] is 32 ng/mL. On to `Cc1ncc2n1-c1ccc(Cl)cc1C(c1ccccc1F)=NC2` [midazolam], for which the “transport by P-gp” value with P-gp is given as “not transported”. `CC(C)=CCC[C@](C)(O[C@@H]1O[C@H](CO[C@@H]2OC[C@H](O)[C@H](O)[C@H]2O)[C@@H](O)[C@H](O)[C@H]1O)[C@H]1CC[C@]2(C)[C@@H]1[C@H](O)C[C@@H]1[C@@]3(C)CC[C@H](O[C@@H]4O[C@H](CO)[C@@H](O)[C@H](O)[C@H]4O[C@@H]4O[C@H](CO)[C@@H](O)[C@H](O)[C@H]4O)C(C)(C)[C@@H]3CC[C@]12C` [ginsenoside Rb2]: the “mRNA level of CYP1A1” value in the data set with CYP1A1 was “significantly increased”. Take `CC(C)=CCC[C@](C)(O[C@@H]1O[C@H](CO)[C@@H](O)[C@H](O)[C@H]1O)[C@H]1CC[C@]2(C)[C@@H]1[C@H](O)C[C@@H]1[C@@]3(C)CC[C@H](O[C@@H]4O[C@H](CO)[C@@H](O)[C@H](O)[C@H]4O[C@@H]4O[C@H](CO)[C@@H](O)[C@H](O)[C@H]4O)C(C)(C)[C@@H]3CC[C@]12C` [ginsenoside Rd]: the “inhibition of CYP3A4” value with CYP3A4 is listed as “weak inhibition”. In addition, the “inhibition of CYP2C9” value with CYP2C9 is “weak inhibition”. Also, the “inhibition of CYP2C19” value in the data set with CYP2C19 was “weak inhibition”. Further, the “inhibition of CYP2D6” value with CYP2D6 was “weak inhibition”. As to `CC(C)=CCC[C@](C)(O[C@@H]1O[C@H](CO)[C@@H](O)[C@H](O)[C@H]1O)[C@H]1CC[C@]2(C)[C@@H]1[C@H](O)C[C@@H]1[C@@]3(C)CC[C@H](O)C(C)(C)[C@@H]3[C@@H](O[C@@H]3O[C@H](CO)[C@@H](O)[C@H](O)[C@H]3O)C[C@]12C` [ginsenoside Rg1], in the data set on CYP1A1, the “mRNA level of CYP1A1” value is listed as “significantly increased”.

Regarding `CC(C)=CCC[C@](C)(O)[C@H]1CC[C@]2(C)[C@@H]1[C@H](O)C[C@@H]1[C@@]3(C)CC[C@H](O[C@@H]4O[C@H](CO)[C@@H](O)[C@H](O)[C@H]4O[C@@H]4O[C@H](CO)[C@@H](O)[C@H](O)[C@H]4O)C(C)(C)[C@@H]3CC[C@]12C` [ginsenoside Rg3], the “(3H) vinblastine efflux” value in the data set on drug-resistant KBV cells is “inhibited”.

The values above are taken from article PMC6035379 (Journal of Ginseng Research, 2017).
